Measured values published in patent US10399948B2, “Negative allosteric modulators of metabotropic glutamate receptor 3” (Vanderbilt University, priority 2015, dated 2019).
Like-named read-outs stand apart in the source and are kept apart here.

Tests used:
[1] = system: group II mGlu receptors (mGlu2 and mGlu3); details: cited from earlier work
[2] = molecular target: rat mGlu5 (Rattus norvegicus (Rat), UniProt P31424); test: mGlu5 Ca2+ flux assay; assay type: cell-based; details: for EC50: glutamate EC20, >10,000 = no plateau, >30,000 = no measurable activity; for activity at 30 µM: read-out: rat mGlu5 Glu max (%)
Experimental: HEK 293A cells stably expressing rat mGlu5 were plated in black-walled, clear-bottomed, poly-D-lysine coated 384-well plates in 20 μL of assay medium (DMEM containing 10% dialyzed FBS, 20 mM HEPES, 100 units/mL penicillin/streptomycin plus 250 ng/mL Fungizone, and 1 mM sodium pyruvate) at a density of 20K cells/well. The cells were grown overnight at 37° C. in the presence of 5% CO2. The next day, medium was removed and the cells incubated with 20 μL of […] Fluo-4, AM prepared as a 2.3 mM stock in DMSO and mixed in a 1:1 ratio with 10% (w/v) pluronic acid F-127 and diluted in assay buffer (Hank's balanced salt solution, 20 mM HEPES, and 2.5 mM probenecid) for 45 minutes at 37° C. Dye was removed, 20 μL of assay buffer was added, and the plate was incubated for 5 minutes at room temperature.
Ca^2+ flux was measured using the Functional Drug Screening System (FDSS7000, Hamamatsu, Japan). After establishment of a fluorescence baseline for about 3 seconds, the compounds of the present invention were added to the cells, and the response in cells was measured. 2.3 minutes later an EC20 concentration of the mGlu5 receptor agonist glutamate was added to the cells, and the response of the cells was measured for 1.9 minutes; an EC80 concentration of agonist was added and readings taken for an additional 1.7 minutes. All test compounds were dissolved and diluted to a concentration of 10 mM in 100% DMSO. Compounds were then serially diluted 1:3 in DMSO into 10 point concentration response curves, transferred to daughter plates, and further diluted into assay buffer to a 2× stock. Calcium fluorescence measures were recorded as fold over basal fluorescence; raw data was then normalized to the maximal response to glutamate.
The raw data file containing all time points was used as the data source in the analysis template. This was saved by the FDSS as a tab-delimited text file. Data were normalized using a static ratio function (F/F0) for each measurement of the total 360 values per well divided by each well's initial value. Data were then reduced to peak amplitudes (Max−Initial Min) using a time range that starts approximately 3 seconds prior to the glutamate EC20/EC80 addition and continues for approximately 90-120 seconds. This is sufficient time to capture the peak amplitude of the cellular calcium response. Individual amplitudes were expressed as % EMax by multiplying each amplitude by 100 and then dividing the product by the mean of the amplitudes derived from the glutamate ECMax-treated wells. EC50 values for test compounds were generated by fitting the normalized values versus the log of the test compound concentration (in mol/L) using a 4 parameter logistic equation where none of the parameters were fixed. Each of the three values collected at each concentration of test compound were weighted evenly.

[3] = molecular target: rat mGlu3 (Rattus norvegicus (Rat), UniProt P31422); test: mGlu3 Ca2+ flux assay; assay type: cell-based; details: for IC50: NAM, glutamate EC80, >10,000 = decrease without plateau, >30,000 = no measurable activity; for remaining activity at 30 µM: response at 30 μM test compound as percentage of maximal response to glutamate, read-out: rat mGlu3 Glu max (%)
[4] = molecular target: rat mGlu2 (Rattus norvegicus (Rat), UniProt P31421); test: mGlu2 Ca2+ flux assay; assay type: cell-based; details: NAM, glutamate EC80; >30,000 = no measurable activity
[5] = system: Aβ-induced neurodegeneration; details: cited from earlier work
[6] = system: glioma stem cells (GSC) tumors; details: compared with controls; cited from earlier work
[7] = system: glioma stem cells (GSC); details: in vitro; cited from earlier work
[8] = system: C57Bl6/J mice; details: FST; cited from earlier work
[9] = system: central mGlu2 and mGlu3 receptors; details: in vivo; cited from earlier work
[10] = system: Helpless (H) mice; details: cited from earlier work; for activity in the tail suspension test: Helpless (H) mice
[11] = system: mice; details: cited from earlier work
[12] = system: rat; details: normal animals; cited from earlier work
[13] = system: mouse; details: normal animals; cited from earlier work
[14] = system: schizophrenic patients; details: compared to placebo, P<0.001 at week 4; cited from earlier work
[15] = system: social isolation-reared mice; details: cited from earlier work
[16] = in vivo; cited from earlier work
[17] = system: olfactory bulbectomized rats; details: repeated administration for 14 days; cited from earlier work
[18] = cited from earlier work
[19] = PAM, read-out: rat mGlu5 EC50 or IC50
[20] = PAM, response at 30 μM test compound as percentage of maximal response to glutamate

Sequence of rat mGlu2 (P31421 19-872): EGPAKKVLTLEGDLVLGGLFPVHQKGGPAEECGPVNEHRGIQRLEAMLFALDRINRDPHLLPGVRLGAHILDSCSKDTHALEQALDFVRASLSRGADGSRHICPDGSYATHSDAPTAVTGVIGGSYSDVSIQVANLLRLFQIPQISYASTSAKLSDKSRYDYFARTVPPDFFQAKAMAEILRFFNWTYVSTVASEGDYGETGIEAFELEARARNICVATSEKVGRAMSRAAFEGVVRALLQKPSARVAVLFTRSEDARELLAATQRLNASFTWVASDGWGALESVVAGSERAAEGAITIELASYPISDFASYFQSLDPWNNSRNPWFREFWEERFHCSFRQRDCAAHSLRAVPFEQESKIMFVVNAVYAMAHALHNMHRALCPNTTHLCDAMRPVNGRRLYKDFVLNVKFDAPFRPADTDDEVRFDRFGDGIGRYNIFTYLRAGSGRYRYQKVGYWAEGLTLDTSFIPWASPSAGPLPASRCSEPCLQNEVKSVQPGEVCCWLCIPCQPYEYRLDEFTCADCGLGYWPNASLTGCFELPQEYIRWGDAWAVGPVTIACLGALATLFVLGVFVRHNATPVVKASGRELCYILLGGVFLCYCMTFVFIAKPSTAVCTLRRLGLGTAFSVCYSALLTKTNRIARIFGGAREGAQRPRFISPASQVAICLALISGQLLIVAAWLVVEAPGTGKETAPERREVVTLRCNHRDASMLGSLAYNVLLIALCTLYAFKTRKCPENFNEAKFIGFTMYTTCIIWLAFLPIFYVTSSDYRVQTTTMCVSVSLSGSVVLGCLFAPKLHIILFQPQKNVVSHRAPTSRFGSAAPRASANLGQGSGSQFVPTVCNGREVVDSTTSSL
Sequence of rat mGlu3 (P31422 23-879): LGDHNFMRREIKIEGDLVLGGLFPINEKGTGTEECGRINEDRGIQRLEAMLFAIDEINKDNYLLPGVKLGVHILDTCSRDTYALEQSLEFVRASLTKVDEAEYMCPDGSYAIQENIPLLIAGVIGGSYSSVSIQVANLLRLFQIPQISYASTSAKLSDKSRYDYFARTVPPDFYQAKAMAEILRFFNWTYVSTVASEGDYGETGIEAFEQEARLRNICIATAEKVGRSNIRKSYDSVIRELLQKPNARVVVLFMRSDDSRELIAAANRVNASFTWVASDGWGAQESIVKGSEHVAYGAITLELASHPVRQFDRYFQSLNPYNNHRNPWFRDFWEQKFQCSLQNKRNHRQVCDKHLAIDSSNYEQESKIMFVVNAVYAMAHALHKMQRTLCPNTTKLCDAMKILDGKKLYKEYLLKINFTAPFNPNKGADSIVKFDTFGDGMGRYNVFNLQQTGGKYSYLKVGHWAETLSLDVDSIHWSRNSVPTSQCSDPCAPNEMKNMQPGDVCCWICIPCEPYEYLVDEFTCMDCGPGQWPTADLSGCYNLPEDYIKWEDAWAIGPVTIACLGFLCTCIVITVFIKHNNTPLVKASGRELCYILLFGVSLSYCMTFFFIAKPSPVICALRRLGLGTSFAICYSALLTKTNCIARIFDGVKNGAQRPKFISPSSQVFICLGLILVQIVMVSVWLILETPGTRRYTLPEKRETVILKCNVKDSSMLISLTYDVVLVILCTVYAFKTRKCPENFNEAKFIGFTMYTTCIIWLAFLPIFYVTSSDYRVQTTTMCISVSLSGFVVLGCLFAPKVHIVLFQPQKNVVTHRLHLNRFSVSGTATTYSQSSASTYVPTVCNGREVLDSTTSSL
Sequence of rat mGlu5 (P31424 21-1203): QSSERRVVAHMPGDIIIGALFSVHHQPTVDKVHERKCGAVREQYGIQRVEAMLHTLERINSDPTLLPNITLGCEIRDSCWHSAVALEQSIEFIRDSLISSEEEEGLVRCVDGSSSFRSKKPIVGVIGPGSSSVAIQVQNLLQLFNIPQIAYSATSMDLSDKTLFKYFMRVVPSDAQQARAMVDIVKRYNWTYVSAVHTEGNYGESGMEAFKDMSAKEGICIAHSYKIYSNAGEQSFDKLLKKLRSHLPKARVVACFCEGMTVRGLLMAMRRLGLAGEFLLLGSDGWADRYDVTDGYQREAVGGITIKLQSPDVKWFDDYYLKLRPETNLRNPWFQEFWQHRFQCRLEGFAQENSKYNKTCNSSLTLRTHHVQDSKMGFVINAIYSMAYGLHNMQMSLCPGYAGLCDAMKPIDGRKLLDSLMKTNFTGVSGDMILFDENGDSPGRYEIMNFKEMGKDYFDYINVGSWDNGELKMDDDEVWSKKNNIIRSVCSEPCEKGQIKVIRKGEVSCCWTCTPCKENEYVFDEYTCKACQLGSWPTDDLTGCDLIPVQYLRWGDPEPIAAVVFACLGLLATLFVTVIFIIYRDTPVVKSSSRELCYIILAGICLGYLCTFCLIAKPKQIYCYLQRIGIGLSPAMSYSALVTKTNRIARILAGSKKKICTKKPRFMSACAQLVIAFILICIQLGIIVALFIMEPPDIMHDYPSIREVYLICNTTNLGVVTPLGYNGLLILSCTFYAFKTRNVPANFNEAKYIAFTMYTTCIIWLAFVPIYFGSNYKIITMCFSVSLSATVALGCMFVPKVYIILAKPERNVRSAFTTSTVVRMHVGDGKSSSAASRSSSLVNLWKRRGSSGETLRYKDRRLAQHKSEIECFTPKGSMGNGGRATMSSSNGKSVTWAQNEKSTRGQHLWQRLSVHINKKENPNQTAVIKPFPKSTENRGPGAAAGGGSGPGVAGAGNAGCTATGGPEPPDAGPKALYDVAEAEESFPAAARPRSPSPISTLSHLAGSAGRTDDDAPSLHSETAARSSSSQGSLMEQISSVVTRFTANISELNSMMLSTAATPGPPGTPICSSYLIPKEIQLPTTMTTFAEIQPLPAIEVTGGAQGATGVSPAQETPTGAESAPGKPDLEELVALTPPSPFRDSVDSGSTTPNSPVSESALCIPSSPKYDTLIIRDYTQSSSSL

## CCCCCCCOC(=O)[C@@]1(F)[C@@H]2C[C@@H](OCc3ccc(Cl)c(Cl)c3)[C@@](N)(C(=O)O)[C@@H]21 [BCI-838]
[1]; once-daily oral dosing, brain concentration of active metabolite BCI-632
  duration of inhibition of group II mGlu receptors: 22 h
[1]; three months of treatment
  Dutch APP transgene-associated learning and memory impairment: reversed
  anxiolytic effects: anxiolytic effects
  levels of monomeric and oAβ peptides in the hippocampus and cortex: decreased
[1]; wild-type and Alzheimer's diseased mice, 3 months
  hippocampal progenitor cell proliferation: stimulated

## O=c1cc(OCCOc2cccc(F)c2)ccn1-c1ccc(F)cc1 [Compound 31, 4-(2-(3-fluorophenoxy)ethoxy)-1-(4-fluorophenyl)pyridin-2(1H)-one]
[2]; [19]
  EC50: 1460 nM
[2]; [20]
  activity at 30 µM: 93.2%
[3]
  IC50: 514 nM
  remaining activity at 30 µM: 1.95%
[4]
  IC50: > 30000 nM

## O=c1cc(OCCOc2ccc(F)cc2)ccn1-c1ccc(F)cc1 [Compound 32, 4-(2-(4-fluorophenoxy)ethoxy)-1-(4-fluorophenyl)pyridin-2(1H)-one]
[2]; [19]
  EC50: 1500 nM
[2]; [20]
  activity at 30 µM: 94.1%
[3]
  IC50: 1050 nM
  remaining activity at 30 µM: -0.56%
[4]
  IC50: > 30000 nM

## O=c1cc(OCCOc2cccc(F)c2F)ccn1-c1ccc(F)cc1 [Compound 33, 4-(2-(2,3-difluorophenoxy)ethoxy)-1-(4-fluorophenyl)pyridin-2(1H)-one]
[2]; [19]
  EC50: 6850 nM
[2]; [20]
  activity at 30 µM: 94.1%
[3]
  IC50: 917 nM
  remaining activity at 30 µM: -0.23%
[4]
  IC50: > 30000 nM

## O=c1cc(OCCOc2ccc(Cl)cc2)ccn1-c1ccc(F)cc1 [Compound 39, 4-(2-(4-chlorophenoxy)ethoxy)-1-(4-fluorophenyl)pyridin-2(1H)-one]
[2]; [19]
  EC50: 10000 nM
[2]; [20]
  activity at 30 µM: 81.1%
[3]
  IC50: 634 nM
  remaining activity at 30 µM: 1.56%
[4]
  IC50: > 30000 nM

## N#Cc1cccc(OCCOc2ccn(-c3ccc(F)cc3)c(=O)c2)c1 [Compound 41, 3-(2-((1-(4-fluorophenyl)-2-oxo-1,2-dihydropyridin-4-yl)oxy)ethoxy)benzonitrile]
[2]; noted as weak NAM, glutamate EC80, read-out: rat mGlu5 EC50 or IC50
  IC50: > 10000 nM
[2]; noted as weak NAM, response at 30 μM test compound
  activity at 30 µM: 29.1%
[3]
  IC50: 715 nM
  remaining activity at 30 µM: 0.13%
[4]
  IC50: > 30000 nM

## O=c1cc(OCCOc2ccc(F)nc2)ccn1-c1ccc(F)cc1 [Compound 45, 1-(4-fluorophenyl)-4-(2-((6-fluoropyridin-3-yl)oxy)ethoxy)pyridin-2(1H)-one]
[2]; [19]
  EC50: > 10000 nM
[2]; [20]
  activity at 30 µM: 35.5%
[3]
  IC50: 701 nM
  remaining activity at 30 µM: 0.88%
[4]
  IC50: > 30000 nM

## O=c1cc(OCCOc2cc(Cl)ccn2)ccn1-c1ccc(F)cc1 [Compound 49, 4-(2-((4-Chloropyridin-2-yl)oxy)ethoxy)-1-(4-fluorophenyl)pyridin-2(1H)-one]
[2]; [19]
  EC50: 8800 nM
[2]; [20]
  activity at 30 µM: 82.3%
[3]
  IC50: 563 nM
  remaining activity at 30 µM: 0.73%
[4]
  IC50: > 30000 nM

## O=c1cc(OCCOc2ncccc2Cl)ccn1-c1ccc(F)cc1 [Compound 54, 4-(2-((3-chloropyridin-2-yl)oxy)ethoxy)-1-(4-fluorophenyl)pyridin-2(1H)-one]
[2]; [19]
  EC50: 7820 nM
[2]; [20]
  activity at 30 µM: 94%
[3]
  IC50: 443 nM
  remaining activity at 30 µM: 0.96%
[4]
  IC50: > 30000 nM

## O=c1cc(OCCOc2ccc(Cl)cn2)ccn1-c1ccc(F)cc1 [Compound 55, 4-(2-((5-chloropyridin-2-yl)oxy)ethoxy)-1-(4-fluorophenyl)pyridin-2(1H)-one]
[2]; [19]
  EC50: > 10000 nM
[2]; [20]
  activity at 30 µM: 25.2%
[3]
  IC50: 729 nM
  remaining activity at 30 µM: 0.32%
[4]
  IC50: > 30000 nM

## N#Cc1ccnc(OCCOc2ccn(-c3ccc(F)cc3)c(=O)c2)c1 [Compound 57, 2-(2-((1-(4-fluorophenyl)-2-oxo-1,2-dihydropyridin-4-yl)oxy)ethoxy)isonicotinonitrile]
[2]; [19]
  EC50: > 10000 nM
[2]; [20]
  activity at 30 µM: 38.7%
[3]
  IC50: 753 nM
  remaining activity at 30 µM: -0.4%
[4]
  IC50: > 30000 nM

## N[C@](CC1c2ccccc2Oc2ccccc21)(C(=O)O)[C@H]1C[C@@H]1C(=O)O [LY341495]
[5]
  amplification of Aβ-induced neurodegeneration by LY566332: prevented
[6]
  growth rate and volume of tumors: reduced
[7]
  proliferation rates and proportion of cells in S phase: decreased in a time-dependent manner
[8]
  immobility time: dose-dependently reduced
[9]
  hypolocomotor effect of mGlu2/3 agonist LY379268: achieved the same result
[10]
  activity in the tail suspension test: active
[10]; acute administration
  antidepressant effect in helpless mice: potent antidepressant effect
[11]
  marble-burying behavior: significantly reduce
[12]
  antidepressant-like effects: Antidepressant-like effects
[13]
  antidepressant-like effects: Antidepressant-like effects

## N[C@@]1(C(=O)O)CS(=O)(=O)[C@H]2[C@H](C(=O)O)[C@H]21 [LY404039]
[14]
  positive and negative symptoms of schizophrenia: statistically significant improvements

## CCS(=O)(=O)N(Cc1cccnc1)c1cccc(-c2ccc(C#N)cc2)c1 [LY566332]
[5]
  Aβ-induced neurodegeneration: amplified

## N[C@]1(C(=O)O)[C@H]2[C@@H](C[C@H]1OCc1ccc(Cl)c(Cl)c1)[C@]2(F)C(=O)O [MGS0039]
[15]
  increased immobility in the FST: reversed
[16]
  freezing behavior: significantly decreased
[17]
  hyperactivity in the open field test: attenuated
  learning deficit in the passive avoidance test: attenuated
[18]; learned helplessness test/paradigm
  antidepressant effects: antidepressant effects
[18]; treatment for 7 days
  number of escape failures: significantly reduced
[11]
  marble-burying behavior: reduced marble-burying behavior in a significant and dose dependent manner
  spontaneous locomotor activity: no significant change
[12]
  antidepressant-like effects: Antidepressant-like effects
[13]
  antidepressant-like effects: Antidepressant-like effects

## Cc1cc(-c2cccc(C3=Nc4cc(C)c(C(F)(F)F)cc4NC(=O)C3)c2)cc(C)n1 [RO4491533]
[8]
  immobility time: dose-dependently reduced
[9]
  hypolocomotor effect of mGlu2/3 agonist LY379268: reversed
[10]
  activity in the tail suspension test: active

## CN1C(=O)CN=C(c2ccccc2)c2cc(Cl)ccc21 [diazepam]
[16]
  freezing behavior: significantly decreased

## CNCCC(Oc1ccc(C(F)(F)F)cc1)c1ccccc1 (stereo not shown) [fluoxetine]
[10]; chronic (21 days) treatment
  antidepressant effect in helpless mice: full antidepressant effect
